Results from ChEMBL document CHEMBL1201862, “PubChem BioAssay data set” (2004).
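Growth conditions: 96-well plates. Treatment: test compound, 48 hours, 5 concentrations. Analysis: linear interpolation between bracketing concentrations; unreached endpoints set to highest concentration. GI50 is the concentration that inhibits growth by half.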 Active and inactive are the calls of the source. Rule as the data show it: active = GI50 up to about 1.1 µM and inactive = higher.

Assays:
Assay in all cases: NCI-60 cell line screen, 48 h
[1] = tested on: OVCAR-8
[2] = tested on: RXF 393
[3] = tested on: SK-OV-3
[4] = tested on: MDA-MB-435
[5] = tested on: MDA-MB-231
[6] = tested on: HCT-15
[7] = tested on: DU-145
[8] = tested on: A549
[9] = tested on: SK-MEL-28
[10] = tested on: SNB-19
[11] = tested on: SK-MEL-5
[12] = tested on: NCI/ADR-RES
[13] = tested on: CAKI-1
[14] = tested on: NCI-H23
[15] = tested on: NCI-H460
[16] = tested on: M14
[17] = tested on: MOLT-4
[18] = tested on: NCI-H226
[19] = tested on: A498
[20] = tested on: HOP-62

Structure (SMILES) | GI50 [1] | GI50 [2] | GI50 [3] | GI50 [4] | GI50 [5] | GI50 [6] | GI50 [7] | GI50 [8] | GI50 [9] | GI50 [10] | GI50 [11] | GI50 [12] | GI50 [13] | GI50 [14] | GI50 [15] | GI50 [16] | GI50 [17] | GI50 [18] | GI50 [19] | GI50 [20]
FC(F)(F)c1ccc(C2=N/S(c3ccccc3)=N\C(c3ccc(C(F)(F)F)cc3)=N/S(c3ccccc3)=N\2)cc1 (stereo not given) | > 100 µM (inactive) | > 100 µM (inactive) | > 100 µM (inactive) | > 100 µM (inactive) | > 100 µM (inactive) | > 100 µM | > 100 µM (inactive) | > 100 µM (inactive) | > 100 µM (inactive) | > 100 µM (inactive) | > 100 µM (inactive) | > 100 µM (inactive) | > 100 µM (inactive) | > 100 µM (inactive) | > 100 µM (inactive) | > 100 µM (inactive) | > 100 µM (inactive) |  |  | 
COc1ccc(CNC(=O)[C@H](Cc2ccc(O)cn2)NC(C)=O)cc1 |  | > 100 µM (inactive) | > 100 µM (inactive) | > 100 µM (inactive) |  | > 100 µM | > 100 µM (inactive) | > 100 µM (inactive) | > 100 µM (inactive) | > 100 µM (inactive) | > 100 µM (inactive) | > 100 µM (inactive) | > 100 µM (inactive) | > 100 µM (inactive) | > 100 µM (inactive) | > 100 µM (inactive) | > 100 µM (inactive) | > 100 µM (inactive) | > 100 µM (inactive) | > 100 µM (inactive)
NC(=S)C1=C(N)Oc2c(c(=O)oc3ccccc23)C1c1ccc(Br)cc1 (stereo not given) | > 100 µM (inactive) |  | > 100 µM (inactive) | > 100 µM (inactive) | > 100 µM (inactive) | > 100 µM | > 100 µM (inactive) | > 100 µM (inactive) | > 100 µM (inactive) | > 100 µM (inactive) | > 100 µM (inactive) | > 100 µM (inactive) | > 100 µM (inactive) | > 100 µM (inactive) | > 100 µM (inactive) | > 100 µM (inactive) |  |  | 63.2 µM (inactive) | > 100 µM (inactive)
S=C(/N=c1/sc(Nc2ccccc2)nc2sc3c(c12)CCCC3)Nc1ccccc1 |  | > 62.5 µM (inactive) | > 62.5 µM (inactive) | > 62.5 µM (inactive) | > 62.5 µM (inactive) | > 62.5 µM | > 62.5 µM (inactive) |  | > 62.5 µM (inactive) | > 62.5 µM (inactive) | > 62.5 µM (inactive) |  | > 62.5 µM (inactive) | > 62.5 µM (inactive) | > 62.5 µM (inactive) |  | > 62.5 µM (inactive) | > 62.5 µM (inactive) | > 62.5 µM (inactive) | > 62.5 µM (inactive)
COc1c(Sc2c(SCSc3cnc4ccccc4c3Sc3cnc4ccccc4c3OC)cnc3ccccc23)cnc2ccccc12 | 31.7 µM (inactive) |  |  | 26.9 µM (inactive) | 29 µM (inactive) | 84.5 µM | > 100 µM (inactive) | > 100 µM (inactive) | 29 µM (inactive) | 22.4 µM (inactive) | 24.8 µM (inactive) | 42.5 µM (inactive) | > 100 µM (inactive) | 54.8 µM (inactive) | 98.2 µM (inactive) | > 100 µM (inactive) | 55.8 µM (inactive) |  |  | 42.9 µM (inactive)
COc1cc2c(cc1OC)CCc1cc(OC)c(OC)cc1CC2 | > 100 µM (inactive) |  | > 100 µM (inactive) | > 100 µM (inactive) | > 100 µM (inactive) | > 100 µM | > 100 µM (inactive) | > 100 µM (inactive) | > 100 µM (inactive) | > 100 µM (inactive) | > 100 µM (inactive) | > 100 µM (inactive) | > 100 µM (inactive) | > 100 µM (inactive) | > 100 µM (inactive) | > 100 µM (inactive) | > 100 µM (inactive) | > 100 µM (inactive) | > 100 µM (inactive) | > 100 µM (inactive)
COc1ccc(C(=O)/C=C/c2ccc(OCC(=O)O)cc2)cc1 | 74.3 µM (inactive) | > 100 µM (inactive) |  | 32.8 µM (inactive) | 59.2 µM (inactive) | > 100 µM | > 100 µM (inactive) | > 100 µM (inactive) | 36.6 µM (inactive) | 98.6 µM (inactive) | > 100 µM (inactive) | 83.4 µM (inactive) | > 100 µM (inactive) | > 100 µM (inactive) |  | > 100 µM (inactive) | 8.57 µM (inactive) |  | > 100 µM (inactive) | > 100 µM (inactive)
CN(C)C1C(CO)OC(n2cnc3c(N)ncnc32)C1O (stereo not given) | > 100 µM (inactive) |  | > 100 µM (inactive) | > 100 µM (inactive) | > 100 µM (inactive) | > 100 µM | > 100 µM (inactive) | > 100 µM (inactive) | > 100 µM (inactive) | > 100 µM (inactive) | > 100 µM (inactive) | > 100 µM (inactive) | > 100 µM (inactive) | > 100 µM (inactive) | > 100 µM (inactive) | > 100 µM (inactive) | > 100 µM (inactive) | > 100 µM (inactive) | > 100 µM (inactive) | > 100 µM (inactive)
Brc1ccc(-c2[nH]c3ccccc3c2/N=N\c2ccccc2)cc1 |  | 16.6 µM (inactive) | 18.9 µM (inactive) | 19.1 µM (inactive) | 19.1 µM (inactive) | 16.3 µM | 17.5 µM (inactive) | 16.6 µM (inactive) | 21.2 µM (inactive) | 20.9 µM (inactive) | 18.3 µM (inactive) |  | 14.7 µM (inactive) | 18.2 µM (inactive) | 17.1 µM (inactive) | 17.5 µM (inactive) | 16.9 µM (inactive) |  | 25.4 µM (inactive) | 18.1 µM (inactive)
Fc1ccc(C(OCCN2CC3CCC(C2)N3CCCc2ccccc2)c2ccc(F)cc2)cc1 | 2.3 µM (inactive) |  | 10.2 µM (inactive) | 2.13 µM (inactive) | 2.74 µM (inactive) | 3.42 µM | 8.13 µM (inactive) | 8.15 µM (inactive) | 8.99 µM (inactive) | 10.1 µM (inactive) | 1.82 µM (inactive) | 3.89 µM (inactive) | 6.22 µM (inactive) | 4.25 µM (inactive) | 3.01 µM (inactive) | 2.48 µM (inactive) | 2.79 µM (inactive) | 3.94 µM (inactive) | 4.27 µM (inactive) | 6.03 µM (inactive)
COc1ccc(C(=O)/C=C/c2ccc(OCCCCCCCCCCOc3ccc(/C=C/C(=O)c4ccc(OC)cc4)cc3)cc2)cc1 | > 100 µM (inactive) | > 100 µM (inactive) | > 100 µM (inactive) | > 100 µM (inactive) | > 100 µM (inactive) | > 100 µM | > 100 µM (inactive) | > 100 µM (inactive) | > 100 µM (inactive) | > 100 µM (inactive) | > 100 µM (inactive) | > 100 µM (inactive) | > 100 µM (inactive) |  | > 100 µM (inactive) | > 100 µM (inactive) | > 100 µM (inactive) | > 100 µM (inactive) |  | > 100 µM (inactive)
O=C1/C(=C/c2cccc(Br)c2)CSC/C1=C\c1cccc(Br)c1 | 1.9 µM (inactive) | 1.79 µM (inactive) | 5.79 µM (inactive) |  | 4.2 µM (inactive) | 2.51 µM | 8.69 µM (inactive) | 4.32 µM (inactive) | 2.65 µM (inactive) | 2.88 µM (inactive) | 1.87 µM (inactive) | 2.34 µM (inactive) | 2.47 µM (inactive) | 3.66 µM (inactive) | 2.57 µM (inactive) | 2.4 µM (inactive) | 1.87 µM (inactive) | 3.72 µM (inactive) |  | 2.72 µM (inactive)
Cc1ncc([N+](=O)[O-])n1CCNC(=O)CCCCCn1ccnc1[N+](=O)[O-] | > 100 µM (inactive) |  | > 100 µM (inactive) | > 100 µM (inactive) | > 100 µM (inactive) | > 100 µM | > 100 µM (inactive) | > 100 µM (inactive) |  | > 100 µM (inactive) | > 100 µM (inactive) | > 100 µM (inactive) | > 100 µM (inactive) | > 100 µM (inactive) | > 100 µM (inactive) | > 100 µM (inactive) | > 100 µM (inactive) | > 100 µM (inactive) | > 100 µM (inactive) | > 100 µM (inactive)
CC(=O)OC1C(Oc2c(C)cc3c(c2O)[C@@H](C)CC[C@@H]3[C@@H](C)CCC=C(C)C)OCC(O)C1O (stereo not given in full) | 21.9 µM (inactive) |  | 19.3 µM (inactive) | 14.6 µM (inactive) | 19.8 µM (inactive) | 17.5 µM | 16.2 µM (inactive) | 14.8 µM (inactive) |  | 19.6 µM (inactive) | 18.1 µM (inactive) | 21.1 µM (inactive) | 19.5 µM (inactive) | 17.9 µM (inactive) | 16.9 µM (inactive) | 16.9 µM (inactive) | 22.6 µM (inactive) | 17.6 µM (inactive) | 20.3 µM (inactive) | 17.3 µM (inactive)
C[N+](C)([O-])Cc1cccc(NC(=O)c2ccc(C(=O)Nc3cccc(C[N+](C)(C)[O-])c3)cc2)c1 | > 100 µM (inactive) | > 100 µM (inactive) | > 100 µM (inactive) |  | > 100 µM (inactive) | > 100 µM | > 100 µM (inactive) | > 100 µM (inactive) | > 100 µM (inactive) | > 100 µM (inactive) | > 100 µM (inactive) | > 100 µM (inactive) | > 100 µM (inactive) | > 100 µM (inactive) | > 100 µM (inactive) | > 100 µM (inactive) | > 100 µM (inactive) | > 100 µM (inactive) |  | > 100 µM (inactive)
